Measurements as given in ChEMBL document CHEMBL5370611, “Discovery of 4,5,6,7-Tetrahydropyrazolo[1.5-a]pyrizine Derivatives as Core Protein Allosteric Modulators (CpAMs) for the Inhibition of Hepatitis B Virus” (J Med Chem, 2023).
Converted amounts (≈) assume the structure as drawn. The source made the active and inactive calls. No cut-off for these calls is given here.

Assays:
[1] = Resistance index, ratio of EC50 for wild type Hepatitis B virus to EC50 for Hepatitis B virus harboring […] transfected in human HepG2 cells measured after 6 days by qPCR analysis; type: functional; details: time 6 day
[2] = Cytotoxicity against human HepDE19 cells assessed as reduction in cell viability measured after 5 days by CCK-8 method; type: functional; details: HepDE19, 120 h, time 5 day
[3] = Metabolic stability in mouse liver microsomes assessed as clearance at 1 uM preincubated for 10 mins and measured upto 30 mins in presence of NADPH generating system by LC-MS/MS analysis; type: ADME, Microsome; details: time < 40 min
[4] = Selectivity index, ratio of CC50 for human HepDE19 cells assessed as reduction in cell viability to EC50 for HBV infected in human HepG2.2.15 cells assessed as reduction in HBV DNA replication; type: toxicity, cell-based; details: HBV-infected HepG2.2.15 cells (EC50)
[5] = system: Hepatitis B virus; assay: Antiviral activity against HBV infected in human HepG2.2.15 cells assessed as reduction in HBV DNA replication measured after 5 days by qPCR analysis; type: functional, organism-based; details: HepG2.2.15, 120 h
[6] = Lyophilization solubility of the compound in phosphate buffer at pH 6.5 incubated for 1 hr under stirring condition and 2 hrs under shaking condition by HPLC-UV analysis; type: physicochemical
[7] = Metabolic stability in human liver microsomes assessed as clearance at 1 uM preincubated for 10 mins and measured upto 30 mins in presence of NADPH generating system by LC-MS/MS analysis; type: ADME, Microsome; details: time < 40 min
[8] = Resistance index, ratio of EC50 for wild type Hepatitis B virus to EC50 for Hepatitis B virus harboring L180M/M204 V/S202G transfected in human HepG2 cells measured after 6 days by qPCR analysis; type: functional; details: time 6 day
[9] = Resistance index, ratio of EC50 for wild type Hepatitis B virus to EC50 for Hepatitis B virus harboring L180M/M204 V/M250 V/[…] transfected in human HepG2 cells measured after 6 days by qPCR analysis; type: functional; details: time 6 day
[10] = Resistance index, ratio of EC50 for wild type Hepatitis B virus to EC50 for Hepatitis B virus harboring L180M/M204 V/T184G/[…] transfected in human HepG2 cells measured after 6 days by qPCR analysis; type: functional; details: time 6 day
[11] = system: Hepatitis B virus; assay: Inhibition of HBV Cp150 dimer assembly assessed as formation of large abnormal particles at 20 uM incubated for 2 hrs by transmission electron microscopy
[12] = Resistance index, ratio of EC50 for wild type Hepatitis B virus to EC50 for Hepatitis B virus harboring A181V/N236T transfected in human HepG2 cells measured after 6 days by qPCR analysis; type: functional; details: time 6 day
[13] = Resistance index, ratio of EC50 for wild type Hepatitis B virus to EC50 for Hepatitis B virus harboring M204 V transfected in human HepG2 cells measured after 6 days by qPCR analysis; type: functional; details: time 6 day
[14] = Resistance index, ratio of EC50 for wild type Hepatitis B virus to EC50 for Hepatitis B virus harboring L180M/M204V transfected in human HepG2 cells measured after 6 days by qPCR analysis; type: functional; details: time 6 day
[15] = Resistance index, ratio of EC50 for wild type Hepatitis B virus to EC50 for Hepatitis B virus harboring A181T/N236T transfected in human HepG2 cells measured after 6 days by qPCR analysis; type: functional; details: time 6 day
[16] = Resistance index, ratio of EC50 for wild type Hepatitis B virus to EC50 for Hepatitis B virus harboring N236T transfected in human HepG2 cells measured after 6 days by qPCR analysis; type: functional; details: time 6 day
[17] = Resistance index, ratio of EC50 for wild type Hepatitis B virus to EC50 for Hepatitis B virus harboring A181T transfected in human HepG2 cells measured after 6 days by qPCR analysis; type: functional; details: time 6 day
[18] = Resistance index, ratio of EC50 for wild type Hepatitis B virus to EC50 for Hepatitis B virus harboring A181V transfected in human HepG2 cells measured after 6 days by qPCR analysis; type: functional; details: time 6 day
[19] = Resistance index, ratio of EC50 for wild type Hepatitis B virus to EC50 for Hepatitis B virus harboring L180M/M204 V/A194T transfected in human HepG2 cells measured after 6 days by qPCR analysis; type: functional; details: time 6 day
[20] = system: Hepatitis B virus; assay: Inhibition of HBV replication transfected in human HepG2.2.15 cells assessed as assessed as induction of capsid degradation in cell lysate at upto 10 uM incubated for 5 days by SDS-PAGE analysis; type: functional, organism-based; details: time 5.0 day
[21] = system: Hepatitis B virus; assay: Inhibition of HBV replication transfected in human HepG2.2.15 cells assessed as inhibition of encapsidated DNA formation in cell lysate incubated for 5 days by SDS-PAGE analysis; type: functional, organism-based; details: dose <= 10.0 µM, time 5.0 day
[22] = system: Hepatitis B virus; assay: Inhibition of HBV replication transfected in human HepG2.2.15 cells assessed as assessed as induction of total core protein degradation in cell lysate at upto 10 uM incubated for 5 days by SDS-PAGE analysis; type: functional, organism-based; details: time 5.0 day

| CLhep predicted at 1 µM [3] [mL/min/kg] | EC50 [5] [nM] | solubility at 3 h [6] [µg/mL] | CLhep predicted at 1 µM [7] [mL/min/kg] | SMILES | CC50 [2] [nM] | selectivity ratio [4] | further results |
| --- | --- | --- | --- | --- | --- | --- | --- |
| – | – | – | – | Cc1cn([C@@H]2C[C@@H](O)[C@H](CO)O2)c(=O)[nH]c1=O [TELBIVUDINE] | – | – | Ratio EC50 [1]: >165 |
| 76 | 286 | < 1 | 14 | O=C(Nc1ccccc1)N1CCn2cnc(-c3ccc(F)cc3)c2C1 | > 100000 | > 349 | – |
| 45 | 40 | 515 (≈ 1260 µM) | 8.7 | C[C@@H]1[C@H](C)N(C(=O)Nc2cc(F)c(F)c(F)c2)Cc2c(N3CCCC3=O)cnn21 | > 100000 | > 2500 | – |
| 34 | 266 | 170 (≈ 448 µM) | 7.2 | O=C(Nc1ccc(F)c(Cl)c1)N1CCn2ncc(N3CCOCC3)c2C1 | > 100000 | > 376 | – |
| – | – | – | – | C=C1[C@H](CO)[C@@H](O)C[C@@H]1n1cnc2c(=O)[nH]c(N)nc21 [ENTECAVIR ANHYDROUS] | – | – | Ratio EC50 [8]: 62.8; Ratio EC50 [9]: 712.4; Ratio EC50 [10]: 607.1 |
| 60 | 70 | – | 15 | O=C(Nc1ccc(Cl)c(F)c1)N1CCn2ncc(-c3ccc(F)cc3)c2C1 | 31000 | 443 | Activity [11]: inactive |
| 63 | 377 | 5 (≈ 14.9 µM) | 21 | O=C(Nc1ccccc1)N1CCc2[nH]nc(-c3ccc(F)cc3)c2C1 | 59000 | 156 | – |
| – | – | – | – | Nc1ccn([C@@H]2CS[C@H](CO)O2)c(=O)n1 [LAMIVUDINE] | – | – | Ratio EC50 [12]: 5.8; Ratio EC50 [13]: 19; Ratio EC50 [14]: >225; Ratio EC50 [15]: 29 |
| 69 | 128 | 6 (≈ 15.4 µM) | 14 | O=C(Nc1ccc(F)c(Cl)c1)N1CCn2ncc(-c3ncc(F)cn3)c2C1 | 32000 | 250 | – |
| 73 | 52 | 525 (≈ 1290 µM) | 15 | C[C@H]1[C@H](C)n2ncc(N3CCCC3=O)c2CN1C(=O)Nc1cc(F)c(F)c(F)c1 | > 100000 | > 1920 | – |
| 65 | 52 | 160 (≈ 423 µM) | 7.8 | O=C(Nc1ccc(F)c(Cl)c1)N1CCn2ncc(N3CCCC3=O)c2C1 | > 100000 | > 1930 | – |
| 79 | 220 | 134 (≈ 368 µM) | 16 | O=C(Nc1ccc(F)c(Cl)c1)N1CCn2ncc(N3CCCC3)c2C1 | 97000 | 440 | – |
| 76 | 2300 | < 1 | 19 | O=C(Nc1ccc(F)c(Cl)c1)N1CCn2ncc(NC3CCCC3)c2C1 | > 100000 | > 43 | – |
| 51 | 252 | 150 (≈ 395 µM) | 6.2 | O=C(Nc1cc(F)c(F)c(F)c1)N1CCn2ncc(N3CCCC3=O)c2C1 | 26000 | 101 | – |
| 87 | 411 | 32 (≈ 94.9 µM) | 14 | O=C(Nc1ccccc1)N1CCn2nnc(-c3ccc(F)cc3)c2C1 | > 100000 | > 243 | – |
| – | – | – | – | Nc1ncnc2c1ncn2CCOCP(=O)(O)O [ADEFOVIR] | – | – | Ratio EC50 [16]: 2.5; Ratio EC50 [17]: 2.2; Ratio EC50 [18]: 1.6 |
| 71 | 308 | < 1 | 18 | O=C(Nc1cccc(Cl)c1)N1CCn2ncc(-c3ccc(F)cc3)c2C1 | 87000 | 284 | – |
| 49 | 3030 | 98 (≈ 290 µM) | 6 | O=C(Nc1cccnc1)N1CCn2ncc(-c3ccc(F)cc3)c2C1 | > 100000 | > 33 | – |
| 74 | 33 | < 1 | 19 | O=C(Nc1ccc(F)c(Cl)c1)N1CCn2ncc(-c3ccccc3F)c2C1 | 16000 | 476 | – |
| 80 | 110 | < 1 | 16 | O=C(Nc1ccc(F)c(Cl)c1)N1CCn2ncc(-c3ccc(F)cn3)c2C1 | 35000 | 320 | – |
| 29 | 63 | 415 (≈ 1010 µM) | 6.2 | C[C@H]1Cn2ncc(N3CCOCC3=O)c2CN1C(=O)Nc1cc(F)c(F)c(F)c1 | > 100000 | > 1590 | – |
| – | – | – | – | COC(=O)C1=C(CN2CC(F)(F)C[C@H]2C(=O)O)NC(c2nccs2)=N[C@H]1c1ccc(F)cc1Cl | – | – | Activity [11]: Active; inhibition [20]: Active; inhibition [21]: Dose-Dependent Effect; inhibition [22]: Active |
| 20 | 155 | 158 (≈ 401 µM) | 6.2 | O=C(Nc1ccc(F)c(Cl)c1)N1CCn2ncc(N3CCOCC3=O)c2C1 | > 100000 | > 645 | – |
| – | – | – | – | C[C@H](Cn1cnc2c(N)ncnc21)OCP(=O)(O)O [TENOFOVIR ANHYDROUS] | – | – | Ratio EC50 [12]: 3.8; Ratio EC50 [16]: 3.3; Ratio EC50 [17]: 0.9; Ratio EC50 [19]: 4.3; Ratio EC50 [18]: 1.5; Ratio EC50 [15]: 3.3 |
| 66 | 36 | < 1 | 17 | O=C(Nc1ccc(F)c(Cl)c1)N1CCn2ncc(-c3ccc(F)cc3F)c2C1 | 42000 | 1180 | – |
| 76 | 323 | 3 (≈ 8.92 µM) | 17 | O=C(Nc1ccccc1)N1CCn2ncc(-c3ccc(F)cc3)c2C1 | 66000 | 204 | – |

| SMILES | CLhep predicted at 1 µM [3] [mL/min/kg] | EC50 [5] [nM] | solubility at 3 h [6] [µg/mL] | CLhep predicted at 1 µM [7] [mL/min/kg] | CC50 [2] [nM] | selectivity ratio [4] | further results |
| --- | --- | --- | --- | --- | --- | --- | --- |
| C[C@H]1Cn2ncc(N3CCCC3=O)c2CN1C(=O)Nc1ccc(F)c(Cl)c1 | 50 | 36 | 330 (≈ 842 µM) | 11 | 94000 | 2600 | Ratio EC50 [12]: 2.2; Ratio EC50 [8]: 1.9; Ratio EC50 [13]: 1.8; Ratio EC50 [1]: 1.9; Ratio EC50 [16]: 1.4; Ratio EC50 [14]: 2.6; Ratio EC50 [9]: 2.4; Ratio EC50 [17]: 1.6; Ratio EC50 [19]: 2.2; inhibition [20]: inactive; Ratio EC50 [18]: 2.1; Ratio EC50 [15]: 2.2; inhibition [21]: Dose-Dependent Effect; Ratio EC50 [10]: 2.9; inhibition [22]: inactive |
